Test systems include OVCAR-8; HT-29; UACC-257; UO-31; LOX IMVI; HOP-62; NCI-H460; SF-268; TK-10; SW-620; HCT-116; RPMI-8226; SK-MEL-28; SK-OV-3; U-251; A549; HOP-92.
Common to all, as to assay: NCI-60 cell line screen, 48 h

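1) Cells in 96-well plates. 2) Compound, 48 h, 5 concentrations. 3) Linear interpolation between surrounding doses. 4) Unreached endpoint = highest concentration. GI50 marks 50% less growth.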 Calls of active or inactive are those of the source. Cut-off read from the data, not from the text of the source: active = GI50 up to about 1.1 µM and inactive = higher.

The values that follow come from ChEMBL document CHEMBL1201862, “PubChem BioAssay data set” (2004).

Take `CCN1CCC(O)(c2ccc(OC)cc2)C(C(=O)c2ccc(OC)cc2)C1` (configuration not stated): the GI50 in the test on OVCAR-8 is 22.3 µM (inactive); in the test with HT-29, 22 µM (inactive); in the test with UACC-257 it was 20.6 µM (inactive); in the test on UO-31, 18.4 µM (inactive); in the test on LOX IMVI, 20 µM (inactive); with HOP-62, > 100 µM (inactive). Also, the GI50 in the test with NCI-H460 is 24 µM (inactive); in the test with SF-268, 20.6 µM (inactive); with TK-10, 3.28 µM (inactive); in the test with SW-620, 10.8 µM (inactive); with HCT-116 it was 22.8 µM (inactive); in the test with RPMI-8226, 4.25 µM (inactive). Further, the GI50 in the test on SK-MEL-28 is 3.25 µM (inactive); with SK-OV-3 it was > 100 µM (inactive); with U-251, 16.7 µM (inactive); with A549 it was 18.1 µM (inactive).
As to `CN(C)CCn1c2ccccc2c2nc3cc4ccccc4cc3nc21`, the GI50 was 5.9 µM (inactive) in the test with OVCAR-8; 0.643 µM (active) in the test with HT-29; 5.07 µM (inactive) in the test on UO-31; 3.18 µM (inactive) in the test on LOX IMVI; 3.07 µM (inactive) in the test on HOP-62; 0.796 µM (active) in the test on NCI-H460. Moreover, the GI50 is 2.14 µM (inactive) in the test on SF-268; 10.5 µM (inactive) with TK-10; 3.48 µM (inactive) in the test on SW-620; 3.79 µM (inactive) with HCT-116; 2.91 µM (inactive) with RPMI-8226; 9.23 µM (inactive) with SK-MEL-28. Also, the GI50 was 5.75 µM (inactive) in the test with SK-OV-3, 6.79 µM (inactive) in the test on U-251 and 3.67 µM (inactive) with A549.
For `Cc1c(CCl)c(=O)oc2c(C)c3occ(CCl)c(=O)c3cc12`, the GI50 was > 100 µM (inactive) with OVCAR-8; > 100 µM (inactive) in the test on UACC-257; 17.5 µM (inactive) with UO-31; 14.9 µM (inactive) in the test on LOX IMVI; > 100 µM (inactive) with HOP-62; > 100 µM (inactive) in the test with NCI-H460. Also, the GI50 with SF-268 was 24.7 µM (inactive); in the test with TK-10, > 100 µM (inactive); with SW-620 it was > 100 µM (inactive); in the test with RPMI-8226 it was 8.69 µM (inactive); with SK-MEL-28 it was 17.5 µM (inactive); in the test on SK-OV-3 it was > 100 µM (inactive). Moreover, the GI50 in the test with U-251 and in the test with A549 was > 100 µM (inactive) throughout.
As to `C=C1C[C@]23CCC4C(C)(C)C(=O)CC[C@]4(C)C2C[C@H]1C(O)C3=O` (some centres not stated), the GI50 in the test on OVCAR-8, with UACC-257, with UO-31, in the test with LOX IMVI, in the test with HOP-62 and in the test on SF-268 was > 75 µM (inactive) throughout. Further, the GI50 in the test on SW-620, in the test with RPMI-8226, in the test on SK-MEL-28, in the test with SK-OV-3, in the test with U-251 and in the test on A549 was > 75 µM (inactive) in each case.
With `C=C1CC(c2ccc(O)c(OC)c2)Oc2c(OC)cccc21` (configuration not stated), the GI50 is 31.1 µM (inactive) in the test with OVCAR-8; 55 µM (inactive) in the test on HT-29; 39.3 µM (inactive) with UACC-257; 60.3 µM (inactive) in the test with UO-31; 85.3 µM (inactive) in the test on HOP-62; 35.1 µM (inactive) with NCI-H460. For the same molecule, the GI50 with SF-268 was 33 µM (inactive); in the test with TK-10 it was 99.3 µM (inactive); in the test on SW-620, 34 µM (inactive); in the test on HCT-116, 31.2 µM (inactive); in the test with SK-MEL-28 it was 43.5 µM (inactive); in the test with SK-OV-3, > 100 µM (inactive). Further, the GI50 is 30.7 µM (inactive) in the test with U-251, 14.4 µM (inactive) with HOP-92 and 33.7 µM (inactive) in the test with A549.
